Reference: the supplement of paper PMC10307832

How the values were obtained:
Assay in all cases: relative viability (nuclei count vs DMSO), 5 days (fraction); higher = more cells survive
[1] = compound: Cc1cc([C@@H](C)Nc2ccccc2C(=O)O)c2nc(N3CCOCC3)cc(=O)n2c1 [AZD6482] + C[C@]1(O)C[C@@H](c2nc(-c3ccc4ccc(-c5ccccc5)nc4c3)c3c(N)nccn32)C1 [Linsitinib] (partner 1 µM)
How it was run: (§1)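 Lung cancer cell lines, seeded in 1536-well plates, were treated the following day by pin tool with a single drug or with five library-drug doses (not always all listed) in √10 steps on top of a fixed anchor-drug dose. Cells were fixed and nuclei stained in one step after 5 days, and nuclei were counted. Relative viability is the nuclei count for treated wells divided by that for vehicle wells, reported as medians of duplicate plates.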

[2] = compound: COc1cc2nc(N3CCCN(C)CC3)nc(NC3CCN(Cc4ccccc4)CC3)c2cc1OC + CCNC(=O)c1noc(-c2cc(C(C)C)c(O)cc2O)c1-c1ccc(CN2CCOCC2)cc1 [Luminespib] (partner 0.01 µM)
How it was run: as §1

[3] = compound: COc1cc2nc(N3CCCN(C)CC3)nc(NC3CCN(Cc4ccccc4)CC3)c2cc1OC + O=C(c1cc(Cc2n[nH]c(=O)c3ccccc23)ccc1F)N1CCN(C(=O)C2CC2)CC1 [Olaparib] (partner 8 µM)
How it was run: as §1

[4] = compound: Cc1cc([C@@H](C)Nc2ccccc2C(=O)O)c2nc(N3CCOCC3)cc(=O)n2c1 [AZD6482] + Nc1ncn([C@H]2C[C@H](O)[C@@H](CO)O2)c(=O)n1 [Decitabine] (partner 2 µM)
How it was run: as §1

| Cell Line | relative viability ([1]; first compound 0.08 µM) | relative viability ([1]; first compound 0.253 µM) | relative viability ([1]; first compound 0.8 µM) | relative viability ([1]; first compound 2.53 µM) | relative viability ([1]; first compound 8 µM) | relative viability ([2]; first compound 0.2 µM) | relative viability ([2]; first compound 0.6325 µM) | relative viability ([2]; first compound 2 µM) | relative viability ([2]; first compound 6.325 µM) | relative viability ([3]; first compound 0.2 µM) | relative viability ([3]; first compound 0.6325 µM) | relative viability ([3]; first compound 2 µM) | relative viability ([3]; first compound 6.325 µM) | relative viability ([4]; first compound 0.08 µM) | relative viability ([4]; first compound 0.253 µM) | relative viability ([4]; first compound 0.8 µM) | relative viability ([4]; first compound 2.53 µM) | relative viability ([4]; first compound 8 µM) |
| --- | --- | --- | --- | --- | --- | --- | --- | --- | --- | --- | --- | --- | --- | --- | --- | --- | --- | --- |
| NCI-H2126 | 0.551 | 0.591 | 0.518 | 0.485 | 0.548 | 0.877 | 0.864 | 0.754 | 0.815 | 1.01 | 0.892 | 0.883 | 0.919 | 0.56 | 0.565 | 0.49 | 0.494 | 0.465 |
| NCI-H2347 | – | 0.943 | 0.949 | 0.571 | 0.84 | 0.57 | 0.521 | 0.446 | 0.524 | 0.563 | 0.532 | 0.535 | 0.521 | 0.474 | 0.565 | 0.555 | 0.52 | 0.449 |
| NCI-H2405 | 0.399 | – | 0.673 | 0.427 | 0.629 | 0.778 | 0.673 | 0.75 | 0.786 | 0.886 | 0.847 | 0.91 | 0.883 | 0.641 | 0.666 | 0.732 | 0.447 | 0.541 |
| NCI-H3122 | 0.828 | 0.993 | 1.02 | 0.85 | 0.816 | 0.0795 | 0.0919 | 0.0888 | 0.0791 | 0.644 | 0.616 | 0.634 | 0.629 | 0.474 | 0.393 | 0.389 | 0.277 | 0.298 |
| PC-3 [JPC-3] | 0.911 | 1.04 | 1.02 | 0.787 | 0.841 | 0.753 | 0.675 | 0.745 | 0.585 | 1.2 | 1.24 | 1.31 | 0.966 | 0.775 | 0.827 | 0.773 | 0.714 | 0.751 |
| PC-14 | 0.93 | 0.966 | 1.02 | 0.675 | 0.736 | 0.123 | 0.242 | 0.162 | 0.122 | 0.322 | 0.374 | 0.279 | 0.0641 | 0.225 | 0.174 | 0.273 | 0.315 | 0.271 |
| RERF-LC-KJ | 0.757 | 0.814 | 0.822 | 0.764 | 0.784 | 1.15 | 1.13 | 1.33 | 0.903 | 0.857 | 0.898 | 1.04 | 0.637 | 0.722 | 0.78 | 0.601 | 0.592 | 0.665 |
| SK-LU-1 | – | 0.905 | 1.1 | 0.886 | 0.912 | 0.184 | 0.213 | 0.197 | 0.178 | 0.45 | 0.384 | 0.564 | 0.366 | – | 0.567 | 0.627 | 0.549 | 0.425 |
| SK-MES-1 | 0.873 | 1.01 | 0.608 | 0.394 | 0.393 | 0.836 | 0.702 | 0.889 | 0.129 | 0.66 | 0.669 | 0.648 | 0.0414 | 0.331 | 0.279 | 0.396 | 0.28 | 0.275 |
